{"source": "paper PMC10882157", "about": "(Diabetes, 2023)", "key": {"rat L6 myoblasts": {"system": "rat L6 myoblasts", "assay": "Cellular oxygen consumption rate", "format": "cell-based"}, "L6 myoblasts": {"system": "L6 myoblasts", "assay": "Whole-cell current clamp recording of plasma membrane potential", "format": "cell-based, rat", "conditions": "n = 8"}, "[1]": {"assay": "Mouse pharmacokinetics and oral bioavailability", "format": "in vivo, C57BL/6J mice", "conditions": "C57BL/6J, plasma, 10 mg/kg"}, "[2]": {"assay": "Rat pharmacokinetics and oral bioavailability", "format": "in vivo, Sprague-Dawley rats", "conditions": "Sprague-Dawley, serum"}, "[3]": {"assay": "Intrinsic clearance in human liver microsomes", "format": "in vitro ADME"}, "mice [4]": {"system": "mice", "assay": "Dose escalation tolerability study by oral gavage", "format": "in vivo, mouse"}, "C57BL/6J mouse tissue": {"system": "C57BL/6J mouse tissue", "assay": "High-resolution respirometry", "format": "in vivo, C57BL/6J mice", "conditions": "2 h after oral gavage of 30 mg/kg"}, "mice [5]": {"system": "mice", "assay": "Whole-body OCR by indirect calorimetry", "format": "in vivo, mouse", "conditions": "40 mg/kg oral gavage"}, "C57BL/6J mice fed the WD": {"system": "C57BL/6J mice fed the WD", "assay": "Western diet-induced adiposity reversal study", "format": "in vivo"}, "[6]": {"assay": "Tissue concentrations at study termination", "format": "in vivo, C57BL/6J mice", "conditions": "for concentration at 6 weeks: C57BL/6J, mouse, oral, 38 mg/kg per day (0.04% w/w in diet)"}, "[7]": {"system": "ACC, pSer79-ACC, FAS, AMPK (pThr172)", "format": "in vivo, mouse", "conditions": "mice fed SHD865 in the WD"}, "[8]": {"system": "β-hydroxy-acyl-CoA dehydrogenase (HAD)", "assay": "Enzyme activity of HAD in WD-fed mice", "format": "in vivo, mouse", "conditions": "mice fed SHD865 in the WD"}, "[9]": {"system": "medium-chain acyl-CoA dehydrogenase (MCAD)", "assay": "Enzyme activity of MCAD in WD-fed mice", "format": "in vivo, mouse", "conditions": "mice fed SHD865 in the WD"}, "L6 cells": {"system": "L6 cells", "assay": "Mitochondrial stress test", "conditions": "drug 50 μmol/L, oligomycin 1 μmol/L"}, "[10]": {"conditions": "second cohort, versus WD-fed controls, 4–5 h fasting"}}, "note": "Values joined by “and” are separate entries in the source; they are usually repeats but may differ in a detail not shown here. Equal values may be shown once."}
{"compound": "COc1nc2nc(C(F)(F)F)[nH]c2nc1Nc1ccc(OC(F)(F)F)cc1F", "note": "[SHD865, N-[2-fluoro-4-[trifluoromethoxy]phenyl]-5-methoxy-2-[trifluoromethyl]-1H-imidazo[4,5-b]pyrazine-6-amine]", "values": [{"measurement": "uncoupled respiration across concentration range", "setting": "rat L6 myoblasts", "value": "maintained uncoupled respiration at a stable rate across a large concentration range"}, {"measurement": "bioactive concentration range in vitro", "setting": "rat L6 myoblasts; Fig. 1B", "value": "> 10", "unit": "µmol/L"}, {"measurement": "increase of cellular OCR, as % of the maximal OCR induced by BAM15 and FCCP", "setting": "rat L6 myoblasts; dose response 0.4 to 50 μmol/L", "value": "~90", "unit": "%"}, {"measurement": "plasma membrane depolarization", "setting": "L6 myoblasts; 25 μmol/L", "value": "1.4 ± 0.4", "unit": "mV"}, {"measurement": "Cmax", "setting": "[1]", "value": 9.1, "unit": "µM"}, {"measurement": "half-life", "setting": "[1]", "value": 1.7, "unit": "h"}, {"measurement": "half-life", "setting": "[2]", "value": 1.7, "unit": "h"}, {"measurement": "microsomal CLint", "setting": "[3]", "value": "< 116", "unit": "µL/min/mg"}, {"measurement": "adverse effects after acute oral bolus", "setting": "mice [4]; C57BL/6J mice, 1,000 mg/kg oral", "value": "no adverse effects"}, {"measurement": "behavioral signs of distress or ill thrift", "setting": "mice [4]; mice, oral gavage 300 and 1,000 mg/kg, 24-h observation", "value": "no behavioral signs of distress or ill thrift were observed"}, {"measurement": "effect on body (rectal) temperature", "setting": "mice [4]; mice, oral gavage 300 and 1,000 mg/kg, 24 h", "value": "no effect on body temperature was detected"}, {"measurement": "efficacious dose relative to dose level with no observed adverse effect", "setting": "mice [4]; ∼38 mg/kg per day in diet versus 1,000 mg/kg acute oral", "value": 27, "unit": "fold"}, {"measurement": "mitochondrial activity in liver, muscle, heart, white and brown fat", "setting": "C57BL/6J mouse tissue", "value": "only the liver had significantly increased mitochondrial activity"}, {"measurement": "time for respiration to return to normal", "setting": "mice [5]", "value": 4, "unit": "h"}, {"measurement": "increase in whole-body OCR compared with vehicle", "setting": "mice [5]; first hour after treatment", "value": "up to 26%"}, {"measurement": "fecal triglyceride levels compared with WD-fed mice", "setting": "C57BL/6J mice fed the WD; 0.04% w/w in WD", "value": "did not alter fecal triglyceride levels"}, {"measurement": "postprandial plasma cholesterol compared with pretreatment", "setting": "C57BL/6J mice fed the WD; 0.04% w/w in WD", "value": "significantly lowered"}, {"measurement": "postprandial plasma triglyceride compared with pretreatment", "setting": "C57BL/6J mice fed the WD; 0.04% w/w in WD", "value": "significantly lowered"}, {"measurement": "random-fed blood glucose compared with WD-fed controls", "setting": "C57BL/6J mice fed the WD; 0.04% w/w in WD", "value": "decrease"}, {"measurement": "random-fed insulin levels compared with WD-fed controls", "setting": "C57BL/6J mice fed the WD; 0.04% w/w in WD", "value": "decrease"}, {"measurement": "skeletal muscle triglyceride content", "setting": "C57BL/6J mice fed the WD; 0.04% w/w in WD", "value": "completely normalized"}, {"measurement": "body weight and body fat mass composition", "setting": "C57BL/6J mice fed the WD; 0.04% w/w in WD (∼38 mg/kg per day), first 2 weeks of treatment", "value": "recovered normal body weight and body fat mass composition similar to the lean chow-fed control mice"}, {"measurement": "WD-induced fat gain (EchoMRI and terminal gonadal fat pad mass)", "setting": "C57BL/6J mice fed the WD; 0.04% w/w in WD, 6 weeks", "value": "completely reversed the WD-induced fat gain"}, {"measurement": "food intake", "setting": "C57BL/6J mice fed the WD; 0.04% w/w in WD, 6 weeks", "value": "without a decrease in food intake"}, {"measurement": "lipid droplet accumulation in liver tissue (hematoxylin and eosin staining)", "setting": "C57BL/6J mice fed the WD; 0.04% w/w in WD, 6 weeks", "value": "decreased lipid droplet accumulation"}, {"measurement": "liver cholesterol concentrations", "setting": "C57BL/6J mice fed the WD; 0.04% w/w in WD, 6 weeks", "value": "lower than WD-fed control mice and similar to chow-fed mice"}, {"measurement": "liver triglyceride levels", "setting": "C57BL/6J mice fed the WD; 0.04% w/w in WD, 6 weeks", "value": "between those of chow-fed and WD-fed mice without being statistically different from either group"}, {"measurement": "blood ALT levels", "setting": "C57BL/6J mice fed the WD; 0.04% w/w in WD, 6 weeks, both cohorts", "value": "did not raise ALT levels"}, {"measurement": "glucose tolerance (GTT at week 9)", "setting": "C57BL/6J mice fed the WD; 0.04% w/w in WD, after 5 weeks of treatment", "value": "completely reversed glucose intolerance"}, {"measurement": "insulin levels during GTT, lower than WD-fed controls", "setting": "C57BL/6J mice fed the WD; second cohort of mice", "value": "20–30%"}, {"measurement": "hepatic triglyceride production using poloxamer 407", "setting": "C57BL/6J mice fed the WD; [10]", "value": "neither experiment showed a phenotype"}, {"measurement": "triglyceride clearance by oral triglyceride tolerance test (OTTT)", "setting": "C57BL/6J mice fed the WD; [10]", "value": "neither experiment showed a phenotype"}, {"measurement": "concentration at 6 weeks", "setting": "[6]; brown fat", "value": 18000, "unit": "ng/g"}, {"measurement": "concentration at 6 weeks", "setting": "[6]; gonadal fat", "value": 27000, "unit": "ng/g"}, {"measurement": "concentration at 6 weeks", "setting": "[6]; liver", "value": "14500 ng/g and ~34 µM"}, {"measurement": "steady-state tissue distribution", "setting": "[6]; study termination, 0.04% w/w in WD", "value": "primarily localized to adipose and liver tissue depots, with lesser exposure in quadriceps muscle, heart, and brain"}, {"measurement": "ACC expression versus WD-fed control mice", "setting": "[7]", "value": "lower"}, {"measurement": "FAS expression versus WD-fed control mice", "setting": "[7]", "value": "lower"}, {"measurement": "Ser79 phosphorylation of ACC", "setting": "[7]", "value": "trend for increased Ser79 phosphorylation of ACC"}, {"measurement": "phosphorylation of AMPK-Thr172", "setting": "[7]", "value": "increased phosphorylation of AMPK-Thr172"}, {"measurement": "decrease of HAD activity versus WD-fed control", "setting": "[8]", "value": 12, "unit": "%"}, {"measurement": "MCAD activity", "setting": "[9]", "value": "no treatment had any effect"}, {"measurement": "mitochondrial respiration in the presence of oligomycin", "setting": "L6 cells", "value": "increase mitochondrial respiration in the presence of the ATP synthase inhibitor oligomycin"}, {"measurement": "spare respiratory capacity, % of BAM15-treated cells", "setting": "L6 cells", "value": "~90", "unit": "%"}]}
{"compound": "N#CC(C#N)=NNc1ccc(OC(F)(F)F)cc1", "note": "[FCCP, carbonylcyanide p-(trifluoromethoxy)phenylhydrazone, reference compound]", "values": [{"measurement": "EC50", "setting": "rat L6 myoblasts; read-out: EC50 (OCR), average values, dose response 0.4 to 50 μmol/L", "value": 1200, "unit": "nM"}, {"measurement": "plasma membrane depolarization", "setting": "L6 myoblasts; 10 μmol/L", "value": "4.9 ± 1.0", "unit": "mV"}]}
